Data taken from patent US5574013A (Warner-Lambert Company, priority 1993, dated 1996).

Each molecule was assayed against T1, CCK B (Mus musculus, UniProt P56481) (assay: CCK receptor binding screening test, displacement of tritiated-pentagastrin from mouse cerebral cortical membranes). Conditions: Ki by Cheng-Prusoff; 2 nM tritiated-pentagastrin; mouse cerebral cortex membranes; read-out: Binding Affinity CCK B.
T1 construct: from tissue; host or cells: cerebral cortex membranes of male CFLP mice
T1 sequence (P56481 1-453): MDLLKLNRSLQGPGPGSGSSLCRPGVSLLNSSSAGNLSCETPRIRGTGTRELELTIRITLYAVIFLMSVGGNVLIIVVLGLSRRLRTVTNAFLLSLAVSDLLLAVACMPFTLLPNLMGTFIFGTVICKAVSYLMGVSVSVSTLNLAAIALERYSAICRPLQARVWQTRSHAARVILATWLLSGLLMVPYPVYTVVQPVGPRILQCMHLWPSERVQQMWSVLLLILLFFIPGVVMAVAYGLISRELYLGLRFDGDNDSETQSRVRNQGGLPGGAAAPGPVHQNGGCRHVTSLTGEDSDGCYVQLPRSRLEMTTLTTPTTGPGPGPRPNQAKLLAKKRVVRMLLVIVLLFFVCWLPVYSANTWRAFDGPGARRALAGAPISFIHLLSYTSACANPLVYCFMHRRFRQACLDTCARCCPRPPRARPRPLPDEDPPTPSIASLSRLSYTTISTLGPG
Procedure: The biological activity of compounds of the present invention was evaluated employing an initial screening test which rapidly and accurately measured the binding of the tested compound to known CCK receptor sites. […] (See Hays et al, Neuropeptides 1:53-62, 1980; and Satuer et al, Science 208:1155-1156, 1980.
In this screening test, the cerebral cortices taken from male CFLP mice weighing between 30-40 g were dissected on ice, weighed, and homogenized in 10 volumes of 50 mM Tris-HCl buffer (pH 7.4 at 0°-4° C.). The resulting suspension was centrifuged, the supernate was discarded, and the pellet was washed by resuspension in Tris-HCl buffer followed by recentrifugation. The final pellet was resuspended in 20 volumes of […] Hepes buffer (pH 7.2 at 23° C.) containing 130 mM NaCl, […] KCl, […] MgCl2, […] EDTA, 5 mg/mL bovine albumin, and bacitracin (0.25 mg/mL).
In saturation studies, cerebral cortical membranes were incubated at 23° C. for 120 minutes in a final volume of 500 μL of Hepes incubation buffer (pH 7.2) together with 0.2-20 nM tritiated-pentagastrin (Amersham International, England).
In the displacement experiments, membranes were incubated with a single concentration (2 nM) of ligand, together with increasing concentrations ([…]) of competitive test compound. In each case, the nonspecific binding was defined as that persisting in the presence of the unlabeled octapeptide CCK26-33 (10^-6 M).
Following incubation, radioactivity bound to membranes was separated from that free in solution by rapid filtration through Whatman GF/B filters and washed three times with 4 mL of ice cold Tris-HCl buffer. Filters from samples incubated with tritiated-pentagastrin were placed in polyethylene vials with 4 mL of scintillation cocktail, and the radioactivity was estimated by liquid scintillation spectrometry (efficiency 47-52%).
The specific binding to CCK receptor sites was defined as the total bound tritiated-pentagastrin minus the amount of tritiated-pentagastrin bound in the presence of 10^-6 octapeptide, CCK26-33.
Saturation curves for specific tritiated-pentagastrin binding to mouse cortical membranes were analyzed by the methods of Scatchard (Ann. New York Acad. Sci. 51:660-672, 1949, and Hill (J. Physiol. 40:IV-VIII, 1910, to provide estimates for the maximum number of binding sites (Bmax) and the equilibrium dissociation constant (Ka).
In displacement experiments, inhibition curves were analyzed by either logit-log plots or the iterative curve fitting computer program ALLFIT (DeLean, Munson and Redbard, 1978) to provide estimates of the IC50 and nH (apparent Hill coefficient) values). (IC50 values were defined as the concentration of test compound required to produce 50% inhibition of specific binding.)
The inhibition constant (Ki) of the test compound was then calculated according to the Cheng-Prusoff equation: [formula] where [L] is the concentration of radiolabel and Ka is the equilibrium dissociation constant.
The Ki values for several representative compounds of the present invention are present in Table I.

Ki [nM] | SMILES
292 | CC(C)CC(CO)NC(=O)C(C)(Cc1c[nH]c2ccccc12)NC(=O)OC1C2CC3CC(C2)CC1C3 (stereo not drawn) [Example 8, Carbamic acid, [2-[[1-(hydroxymethyl)-3-methylbutyl]amino]-1-(1H-indol-3-ylmethyl)-1-methyl-2-oxoethyl]-, tricyclo[3.3.1.1^3,7]dec-2-yl ester, [R-(R*,S*)]-]
1510 | C[C@](Cc1c[nH]c2ccccc12)(NC(=O)OC1C2CC3CC(C2)CC1C3)C(=O)NCC(=O)O (stereo partly drawn) [Example 4]
50.4 | C[C@](Cc1c[nH]c2ccccc12)(NC(=O)OC1C2CC3CC(C2)CC1C3)C(=O)NCC(=O)OCc1ccccc1 (stereo partly drawn) [Example 3, Gycine, N-[2-methyl-N-[(tricyclo[3.3.1.1^3,7]dec-2-yloxy)carbonyl]-D-tryptophyl]-, phenylmethyl ester]
299 | C[C@](Cc1c[nH]c2ccccc12)(NC(=O)OC1C2CC3CC(C2)CC1C3)C(=O)NCCC(=O)OCc1ccccc1 (stereo partly drawn) [Example 7, Propanoic acid, 3-[(3-(1H-indol-3-yl)-2-methyl-1-oxo-2-[[(tricyclo[3.3.1.1^3,7]dec-2-yloxy)carbonyl]amino]propyl]amino]--, phenylmethyl ester (R)-]
24 | CSCC[C@H](NC(=O)[C@@](C)(Cc1c[nH]c2ccccc12)NC(=O)OC1C2CC3CC(C2)CC1C3)C(=O)O (stereo partly drawn) [Example 11, N-[α-methyl-N-[(tricyclo[3.3.1.1^3,7]dec-2-yloxy)carbonyl]-D-tryptophyl]-L-methionine]
225 | CCC(C)C(CO)NC(=O)C(C)(Cc1c[nH]c2ccccc12)NC(=O)OC1C2CC3CC(C2)CC1C3 (stereo not drawn) [Example 9, Carbamic acid, [2-[[1-(hydroxymethyl)-2-methylbutyl]amino]-1-(1H-indol-3-ylmethyl)-1-methyl-2-oxoethyl]-, tricyclo[3.3.1.1^3,7]dec-2-yl ester, [1S-[1R*(S*), 2R*]]-]

SMILES | Ki [nM]
COC(=O)CCNC(=O)[C@H](CCSC)NC(=O)[C@@](C)(Cc1c[nH]c2ccccc12)NC(=O)OC1C2CC3CC(C2)CC1C3 (stereo partly drawn) [Example 12] | 30
COC(=O)CCCNC(=O)[C@@](C)(Cc1c[nH]c2ccccc12)NC(=O)OC1C2CC3CC(C2)CC1C3 (stereo partly drawn) [Example 1, Butanoic acid, 4-[[3-(1H-indol-3-yl)-2-methyl-1-oxo-2-[[(tricyclo[3.3.1.1^3,7]dec-2-yloxy)carbonyl]amino]propyl]amino]-, methyl ester (R)-] | 82.1
C[C@](Cc1c[nH]c2ccccc12)(NC(=O)OC1C2CC3CC(C2)CC1C3)C(=O)NCCC(=O)O (stereo partly drawn) [Example 6, β-Alanine, N-[α-methyl-N-[(tricyclo[3.3.1.1^3,7]dec-2-yloxy)carbonyl]-D-tryptophyl]-] | 4380
